From ChEMBL document CHEMBL1201862, “PubChem BioAssay data set” (2004)
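Tested at 5 concentrations; 48 h exposure; 96-well plates; endpoints linearly interpolated, else capped at highest concentration. GI50 marks 50% less growth.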 Active and inactive are the calls of the source. Cut-off read from the data, not from the text of the source: active = GI50 up to about 1.1 µM and inactive = higher.

Legend:
Assay in all cases: NCI tumour cell line growth inhibition, 48 h
NCI-H226 = test system: NCI-H226
IGROV-1 = test system: IGROV-1
RXF 393 = test system: RXF 393
BT-549 = test system: BT-549
A549 = test system: A549
SNB-19 = test system: SNB-19
ACHN = test system: ACHN
UO-31 = test system: UO-31
OVCAR-8 = test system: OVCAR-8
UACC-257 = test system: UACC-257
HL-60 = test system: HL-60
NCI-H23 = test system: NCI-H23
HT-29 = test system: HT-29
DU-145 = test system: DU-145
M14 = test system: M14
SNB-75 = test system: SNB-75
CAKI-1 = test system: CAKI-1
OVCAR-4 = test system: OVCAR-4
NCI-H522 = test system: NCI-H522
KM12 = test system: KM12
HCT-116 = test system: HCT-116
EKVX = test system: EKVX
RPMI-8226 = test system: RPMI-8226
SF-268 = test system: SF-268
T47D = test system: T47D
TK-10 = test system: TK-10
NCI/ADR-RES = test system: NCI/ADR-RES
NCI-H460 = test system: NCI-H460
HCT-15 = test system: HCT-15
UACC-62 = test system: UACC-62
786-0 = test system: 786-0
MCF7 = test system: MCF7
Malme-3M = test system: Malme-3M
CCRF-CEM = test system: CCRF-CEM
Hs-578T = test system: Hs-578T
PC-3 = test system: PC-3
OVCAR-3 = test system: OVCAR-3
MDA-MB-231 = test system: MDA-MB-231
SK-OV-3 = test system: SK-OV-3
SK-MEL-28 = test system: SK-MEL-28
MOLT-4 = test system: MOLT-4
SK-MEL-5 = test system: SK-MEL-5
OVCAR-5 = test system: OVCAR-5
MDA-MB-435 = test system: MDA-MB-435
SN12C = test system: SN12C
HCC 2998 = test system: HCC 2998
HOP-62 = test system: HOP-62
MDA-N = test system: MDA-N
SF-295 = test system: SF-295
U-251 = test system: U-251
COLO 205 = test system: COLO 205
SW-620 = test system: SW-620
K562 = test system: K562
SF-539 = test system: SF-539
SK-MEL-2 = test system: SK-MEL-2
LOX IMVI = test system: LOX IMVI
HOP-92 = test system: HOP-92

Cc1ccc(-n2nnc(C(N)=O)c2O)cc1
GI50 (NCI-H226): > 100 µM (inactive) | GI50 (IGROV-1): > 100 µM (inactive) | GI50 (RXF 393): > 100 µM (inactive) | GI50 (BT-549): > 100 µM (inactive) | GI50 (A549): > 100 µM (inactive) | GI50 (SNB-19): > 100 µM (inactive) | GI50 (ACHN): > 100 µM (inactive) | GI50 (UO-31): > 100 µM (inactive) | GI50 (OVCAR-8): > 100 µM (inactive) | GI50 (UACC-257): > 100 µM (inactive) | GI50 (HL-60): > 100 µM (inactive) | GI50 (NCI-H23): > 100 µM (inactive) | GI50 (HT-29): > 100 µM (inactive) | GI50 (DU-145): > 100 µM (inactive) | GI50 (M14): > 100 µM (inactive) | GI50 (SNB-75): > 100 µM (inactive) | GI50 (CAKI-1): > 100 µM (inactive) | GI50 (OVCAR-4): > 100 µM (inactive) | GI50 (NCI-H522): > 100 µM (inactive) | GI50 (KM12): > 100 µM (inactive) | GI50 (HCT-116): > 100 µM (inactive) | GI50 (EKVX): > 100 µM (inactive) | GI50 (RPMI-8226): > 100 µM (inactive) | GI50 (SF-268): > 100 µM (inactive) | GI50 (T47D): > 100 µM (inactive) | GI50 (TK-10): > 100 µM (inactive) | GI50 (NCI/ADR-RES): > 100 µM (inactive) | GI50 (NCI-H460): > 100 µM (inactive) | GI50 (HCT-15): > 100 µM | GI50 (UACC-62): > 100 µM (inactive) | GI50 (786-0): > 100 µM (inactive) | GI50 (MCF7): > 100 µM (inactive) | GI50 (Malme-3M): > 100 µM (inactive) | GI50 (CCRF-CEM): > 100 µM (inactive) | GI50 (Hs-578T): > 100 µM (inactive) | GI50 (PC-3): > 100 µM (inactive) | GI50 (OVCAR-3): > 100 µM (inactive) | GI50 (MDA-MB-231): > 100 µM (inactive) | GI50 (SK-OV-3): > 100 µM (inactive) | GI50 (SK-MEL-28): > 100 µM (inactive) | GI50 (MOLT-4): > 100 µM (inactive) | GI50 (SK-MEL-5): > 100 µM (inactive) | GI50 (OVCAR-5): > 100 µM (inactive) | GI50 (MDA-MB-435): > 100 µM (inactive) | GI50 (SN12C): > 100 µM (inactive) | GI50 (HCC 2998): > 100 µM (inactive) | GI50 (HOP-62): > 100 µM (inactive) | GI50 (MDA-N): > 100 µM (inactive) | GI50 (SF-295): > 100 µM (inactive) | GI50 (U-251): > 100 µM (inactive) | GI50 (COLO 205): > 100 µM (inactive) | GI50 (SW-620): > 100 µM (inactive) | GI50 (K562): > 100 µM (inactive)

COc1cc2c(c(OC)c1OC)-c1ccc(SC)c(=O)cc1[C@@H](OC(C)=O)CC2
GI50 (NCI-H226): < 0.01 µM (active) | GI50 (IGROV-1): < 0.01 µM (active) | GI50 (RXF 393): 0.885 µM (active) | GI50 (BT-549): < 0.01 µM (active) | GI50 (A549): < 0.01 µM (active) | GI50 (SNB-19): < 0.01 µM (active) | GI50 (ACHN): < 0.01 µM (active) | GI50 (UO-31): < 0.01 µM (active) | GI50 (OVCAR-8): < 0.01 µM (active) | GI50 (SF-539): < 0.01 µM (active) | GI50 (UACC-257): < 0.01 µM (active) | GI50 (HL-60): < 0.01 µM (active) | GI50 (NCI-H23): < 0.01 µM (active) | GI50 (HT-29): < 0.01 µM (active) | GI50 (DU-145): < 0.01 µM (active) | GI50 (M14): < 0.01 µM (active) | GI50 (SNB-75): < 0.0152 µM (active) | GI50 (CAKI-1): < 0.01 µM (active) | GI50 (OVCAR-4): > 100 µM (inactive) | GI50 (NCI-H522): < 0.01 µM (active) | GI50 (KM12): < 0.01 µM (active) | GI50 (HCT-116): < 0.01 µM (active) | GI50 (SF-268): < 0.01 µM (active) | GI50 (SK-MEL-2): < 0.01 µM (active) | GI50 (T47D): > 100 µM (inactive) | GI50 (TK-10): 21.8 µM (inactive) | GI50 (NCI/ADR-RES): < 0.01 µM (active) | GI50 (NCI-H460): < 0.01 µM (active) | GI50 (HCT-15): < 0.01 µM | GI50 (UACC-62): < 0.01 µM (active) | GI50 (786-0): < 0.01 µM (active) | GI50 (LOX IMVI): < 0.01 µM (active) | GI50 (MCF7): < 0.01 µM (active) | GI50 (Malme-3M): < 0.01 µM (active) | GI50 (CCRF-CEM): < 0.01 µM (active) | GI50 (Hs-578T): < 0.01 µM (active) | GI50 (PC-3): < 0.01 µM (active) | GI50 (OVCAR-3): < 0.01 µM (active) | GI50 (MDA-MB-231): < 0.01 µM (active) | GI50 (SK-MEL-28): < 0.01 µM (active) | GI50 (MOLT-4): < 0.01 µM (active) | GI50 (SK-MEL-5): < 0.01 µM (active) | GI50 (MDA-MB-435): < 0.01 µM (active) | GI50 (SN12C): < 0.01 µM (active) | GI50 (HCC 2998): < 0.01 µM (active) | GI50 (HOP-62): < 0.01 µM (active) | GI50 (MDA-N): < 0.01 µM (active) | GI50 (SF-295): < 0.01 µM (active) | GI50 (U-251): < 0.01 µM (active) | GI50 (COLO 205): < 0.01 µM (active) | GI50 (HOP-92): > 100 µM (inactive) | GI50 (SW-620): < 0.01 µM (active) | GI50 (K562): < 0.01 µM (active)
